Test results published in PubChem BioAssay AID1918999 (Molecular Pharmacology Branch, DTP, NCI, 2023).

System: 556581-035-R-J1-PDC complex spheroid growth
Test: Anticancer human tumor 556581-035-R-J1-PDC patient-derived ovarian carcinoma cell line growth inhibition [AhR]
Conditions: for IC50: curve of first compound; for viability, T/C: stronger effect = lower value
Outline: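 Complex tumor spheroids co-cultured with HUVEC and human MSC stroma; AhR antagonists tested in combination with standard-of-care and investigational agents. Top concentration at or near clinical Cmax (else 10 microM), half-log dilutions; growth expressed as percent test/control.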

[1] = second compound 0.1 µM, first compound 0.0316 µM
[2] = second compound 0.1 µM, first compound 0.1 µM
[3] = second compound 0.316 µM, first compound 0.0316 µM
[4] = second compound 0.316 µM, first compound 0.1 µM
[5] = second compound 1 µM, first compound 0.0316 µM
[6] = second compound 1 µM, first compound 0.1 µM
[7] = second compound 3.16 µM, first compound 0.0316 µM
[8] = second compound 3.16 µM, first compound 0.1 µM
[9] = second compound 10 µM, first compound 0.0316 µM
[10] = second compound 10 µM, first compound 0.1 µM
[11] = second compound 0.1 µM, first compound 0.316 µM
[12] = second compound 0.1 µM, first compound 1 µM
[13] = second compound 0.1 µM, first compound 3.16 µM
[14] = second compound 0.1 µM, first compound 10 µM
[15] = second compound 0.316 µM, first compound 0.316 µM
[16] = second compound 0.316 µM, first compound 1 µM
[17] = second compound 0.316 µM, first compound 3.16 µM
[18] = second compound 0.316 µM, first compound 10 µM
[19] = second compound 1 µM, first compound 0.316 µM
[20] = second compound 1 µM, first compound 1 µM
[21] = second compound 1 µM, first compound 3.16 µM
[22] = second compound 1 µM, first compound 10 µM
[23] = second compound 3.16 µM, first compound 0.316 µM
[24] = second compound 3.16 µM, first compound 1 µM
[25] = second compound 3.16 µM, first compound 3.16 µM
[26] = second compound 3.16 µM, first compound 10 µM
[27] = second compound 10 µM, first compound 0.316 µM
[28] = second compound 10 µM, first compound 1 µM
[29] = second compound 10 µM, first compound 3.16 µM
[30] = second compound 10 µM, first compound 10 µM
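For viability, T/C in this document: compound exposure lasted 7 days; 100% = DMSO vehicle control growth.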

| Compound | IC50 (second compound 0.1 µM) [nM] | IC50 (second compound 0.316 µM) [nM] | IC50 (second compound 1 µM) [nM] | IC50 (second compound 3.16 µM) [nM] | IC50 (second compound 10 µM) [nM] | viability, T/C [1] [%] | viability, T/C [2] [%] | viability, T/C [3] [%] | viability, T/C [4] [%] | viability, T/C [5] [%] | viability, T/C [6] [%] | viability, T/C [7] [%] | viability, T/C [8] [%] | viability, T/C [9] [%] | viability, T/C [10] [%] | viability, T/C [11] [%] | viability, T/C [12] [%] | viability, T/C [13] [%] | viability, T/C [14] [%] | viability, T/C [15] [%] | other results |
| --- | --- | --- | --- | --- | --- | --- | --- | --- | --- | --- | --- | --- | --- | --- | --- | --- | --- | --- | --- | --- | --- |
| CC[C@@]1(O)C(=O)OCc2c1cc1n(c2=O)Cc2cc3c(CN(C)C)c(O)ccc3nc2-1 + Cc1ccccc1N=Nc1ccc(NC(=O)c2ccnn2C)c(C)c1 | > 100 | > 100 | > 100 | > 100 | > 100 | 70.4 | 50.6 | 69.1 | 54.9 | 65 | 60.3 | 62.9 | 53.1 | 64.7 | 55.1 | – | – | – | – | – | viability, T/C (second compound 0.1 µM, first compound 0.000316 µM): 94.8%; viability, T/C (second compound 0.1 µM, first compound 0.001 µM): 98.5%; viability, T/C (second compound 0.1 µM, first compound 0.00316 µM): 91.5%; viability, T/C (second compound 0.1 µM, first compound 0.01 µM): 82.3%; viability, T/C (second compound 0.316 µM, first compound 0.000316 µM): 108%; viability, T/C (second compound 0.316 µM, first compound 0.001 µM): 104%; viability, T/C (second compound 0.316 µM, first compound 0.00316 µM): 92.6%; viability, T/C (second compound 0.316 µM, first compound 0.01 µM): 73.7%; viability, T/C (second compound 1 µM, first compound 0.000316 µM): 101%; viability, T/C (second compound 1 µM, first compound 0.001 µM): 93.7%; viability, T/C (second compound 1 µM, first compound 0.00316 µM): 84.7%; viability, T/C (second compound 1 µM, first compound 0.01 µM): 79.1%; viability, T/C (second compound 3.16 µM, first compound 0.000316 µM): 81.3%; viability, T/C (second compound 3.16 µM, first compound 0.001 µM): 83%; viability, T/C (second compound 3.16 µM, first compound 0.00316 µM): 83.4%; viability, T/C (second compound 3.16 µM, first compound 0.01 µM): 72%; viability, T/C (second compound 10 µM, first compound 0.000316 µM): 89.2%; viability, T/C (second compound 10 µM, first compound 0.001 µM): 91.4%; viability, T/C (second compound 10 µM, first compound 0.00316 µM): 91.1%; viability, T/C (second compound 10 µM, first compound 0.01 µM): 69% |
| COc1cc(C2c3cc4c(cc3C(OC3OC5COC(C)OC5C(O)C3O)C3COC(=O)C23)OCO4)cc(OC)c1O (stereo not given) + Cc1ccccc1N=Nc1ccc(NC(=O)c2ccnn2C)c(C)c1 | > 10000 | > 10000 | > 10000 | > 10000 | > 10000 | 109 | 101 | 110 | 106 | 95.9 | 106 | 91.9 | 104 | 93.2 | 98 | 85.4 | 71 | 68.8 | 52.5 | 85.1 | viability, T/C [16]: 75.7%; viability, T/C [17]: 71.5%; viability, T/C [18]: 51.4%; viability, T/C [19]: 92.1%; viability, T/C [20]: 69.7%; viability, T/C [21]: 66.5%; viability, T/C [22]: 53.9%; viability, T/C [23]: 94.2%; viability, T/C [24]: 72%; viability, T/C [25]: 62.5%; viability, T/C [26]: 58.7%; viability, T/C [27]: 89.5%; viability, T/C [28]: 75.8%; viability, T/C [29]: 69.7%; viability, T/C [30]: 56.8% |
| Nc1ccn(C2OC(CO)C(O)C2(F)F)c(=O)n1 (stereo not given) + Cc1ccccc1N=Nc1ccc(NC(=O)c2ccnn2C)c(C)c1 | < 31.6 | < 31.6 | < 31.6 | < 31.6 | < 31.6 | 35.5 | 41.6 | 31.9 | 37.4 | 38.3 | 37.2 | 36.1 | 36.9 | 38 | 42.6 | 38.4 | 34.7 | 35.5 | 34 | 38.4 | viability, T/C [16]: 37.6%; viability, T/C [17]: 35.4%; viability, T/C [18]: 32.4%; viability, T/C [19]: 41.1%; viability, T/C [20]: 36.2%; viability, T/C [21]: 33.9%; viability, T/C [22]: 30%; viability, T/C [23]: 37.6%; viability, T/C [24]: 37.7%; viability, T/C [25]: 37.1%; viability, T/C [26]: 29%; viability, T/C [27]: 40.9%; viability, T/C [28]: 39.7%; viability, T/C [29]: 37.7%; viability, T/C [30]: 35.6% |
